pIC50: −log10 of the molar value.

Assay [1] addresses T1, hFASN enzyme (full length) (Homo sapiens, UniProt P49327).
T1 construct: 10 μL hFASN enzyme (full length, 300 ng, purified in house); made in house
Put plainly: Fatty Acid Synthase (FASN) Inhibition Scintillation Proximity Assay. The settings on record: for pIC50: mean where tested more than once, ~ = standard error of pIC50 larger than 0.5; for inhibition at 10 µM: read-out: FASN % Effect @1E−05M. The format is biochemical. In outline:
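Purified full-length human FASN (300 ng) incubated 60 min at room temperature with NADPH, [3H]-acetyl-CoA and malonyl-CoA in 100 mM KH2PO4 pH 7.5, 1 mM DTT; compound at 30 μM to 0.01 μM. [3H]-palmitate captured by SPA imaging beads; IC50 from 4-parameter fit, reported as pIC50.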
(In general: Scintillation proximity formats need no separation of bound from free tracer.)

Assay [2] has as its system A2780 ovarian cells. Put plainly: A2780 Ovarian Cell Proliferation Assay in Lipid Reduced Medium, with Palmitate (control). The format is cell-based. As to conditions: Homo sapiens, A2780; lipid reduced medium, 25 μM palmitate, 96 h, MTT; read-out: Proliferation A2780 with Palmitate pIC50 (converted). In a few lines:
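A2780 cells were seeded in RPMI1640 with 10% FCS, then switched next day to medium with 10% lipid-reduced serum. Compound was added with final 25 μM palmitate, 0.2% fatty-acid-free BSA and 0.2% DMSO, and incubated 96 h at 37 °C. Read-out was MTT absorbance at 544 nm; pIC50 = −log(IC50) from curve fit.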

For assay [3], the system named is A2780 ovarian cells. Kind of assay: A2780 Ovarian Cell Proliferation Assay in Lipid Reduced Medium, without Palmitate. The format is cell-based. The settings on record: Homo sapiens, A2780; lipid reduced medium, without palmitate, 96 h, MTT; read-out: Proliferation A2780 w/o Palmitate pIC50 (converted). In a few lines:
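A2780 cells were seeded in 10% FCS medium and switched next day to 10% lipid-reduced serum without palmitate. Compounds at 0.01–30 μM were added with 0.2% DMSO, 0.2% fatty-acid-free BSA and 0.25% ethanol final. After 96 h, MTT absorbance at 544 nm was normalized to plate controls, and IC50/pIC50 came from a 4-parameter logistic fit.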

Assay [4] deals with T2, FASN Keto-reductase Domain (Homo sapiens, UniProt P49327).
T2 construct: 10 μL hFASN enzyme (full length, 300 ng, purified in house) and 360 μM NADPH; made in house
T2 sequence (P49327 whole entry, the tested form may be a part): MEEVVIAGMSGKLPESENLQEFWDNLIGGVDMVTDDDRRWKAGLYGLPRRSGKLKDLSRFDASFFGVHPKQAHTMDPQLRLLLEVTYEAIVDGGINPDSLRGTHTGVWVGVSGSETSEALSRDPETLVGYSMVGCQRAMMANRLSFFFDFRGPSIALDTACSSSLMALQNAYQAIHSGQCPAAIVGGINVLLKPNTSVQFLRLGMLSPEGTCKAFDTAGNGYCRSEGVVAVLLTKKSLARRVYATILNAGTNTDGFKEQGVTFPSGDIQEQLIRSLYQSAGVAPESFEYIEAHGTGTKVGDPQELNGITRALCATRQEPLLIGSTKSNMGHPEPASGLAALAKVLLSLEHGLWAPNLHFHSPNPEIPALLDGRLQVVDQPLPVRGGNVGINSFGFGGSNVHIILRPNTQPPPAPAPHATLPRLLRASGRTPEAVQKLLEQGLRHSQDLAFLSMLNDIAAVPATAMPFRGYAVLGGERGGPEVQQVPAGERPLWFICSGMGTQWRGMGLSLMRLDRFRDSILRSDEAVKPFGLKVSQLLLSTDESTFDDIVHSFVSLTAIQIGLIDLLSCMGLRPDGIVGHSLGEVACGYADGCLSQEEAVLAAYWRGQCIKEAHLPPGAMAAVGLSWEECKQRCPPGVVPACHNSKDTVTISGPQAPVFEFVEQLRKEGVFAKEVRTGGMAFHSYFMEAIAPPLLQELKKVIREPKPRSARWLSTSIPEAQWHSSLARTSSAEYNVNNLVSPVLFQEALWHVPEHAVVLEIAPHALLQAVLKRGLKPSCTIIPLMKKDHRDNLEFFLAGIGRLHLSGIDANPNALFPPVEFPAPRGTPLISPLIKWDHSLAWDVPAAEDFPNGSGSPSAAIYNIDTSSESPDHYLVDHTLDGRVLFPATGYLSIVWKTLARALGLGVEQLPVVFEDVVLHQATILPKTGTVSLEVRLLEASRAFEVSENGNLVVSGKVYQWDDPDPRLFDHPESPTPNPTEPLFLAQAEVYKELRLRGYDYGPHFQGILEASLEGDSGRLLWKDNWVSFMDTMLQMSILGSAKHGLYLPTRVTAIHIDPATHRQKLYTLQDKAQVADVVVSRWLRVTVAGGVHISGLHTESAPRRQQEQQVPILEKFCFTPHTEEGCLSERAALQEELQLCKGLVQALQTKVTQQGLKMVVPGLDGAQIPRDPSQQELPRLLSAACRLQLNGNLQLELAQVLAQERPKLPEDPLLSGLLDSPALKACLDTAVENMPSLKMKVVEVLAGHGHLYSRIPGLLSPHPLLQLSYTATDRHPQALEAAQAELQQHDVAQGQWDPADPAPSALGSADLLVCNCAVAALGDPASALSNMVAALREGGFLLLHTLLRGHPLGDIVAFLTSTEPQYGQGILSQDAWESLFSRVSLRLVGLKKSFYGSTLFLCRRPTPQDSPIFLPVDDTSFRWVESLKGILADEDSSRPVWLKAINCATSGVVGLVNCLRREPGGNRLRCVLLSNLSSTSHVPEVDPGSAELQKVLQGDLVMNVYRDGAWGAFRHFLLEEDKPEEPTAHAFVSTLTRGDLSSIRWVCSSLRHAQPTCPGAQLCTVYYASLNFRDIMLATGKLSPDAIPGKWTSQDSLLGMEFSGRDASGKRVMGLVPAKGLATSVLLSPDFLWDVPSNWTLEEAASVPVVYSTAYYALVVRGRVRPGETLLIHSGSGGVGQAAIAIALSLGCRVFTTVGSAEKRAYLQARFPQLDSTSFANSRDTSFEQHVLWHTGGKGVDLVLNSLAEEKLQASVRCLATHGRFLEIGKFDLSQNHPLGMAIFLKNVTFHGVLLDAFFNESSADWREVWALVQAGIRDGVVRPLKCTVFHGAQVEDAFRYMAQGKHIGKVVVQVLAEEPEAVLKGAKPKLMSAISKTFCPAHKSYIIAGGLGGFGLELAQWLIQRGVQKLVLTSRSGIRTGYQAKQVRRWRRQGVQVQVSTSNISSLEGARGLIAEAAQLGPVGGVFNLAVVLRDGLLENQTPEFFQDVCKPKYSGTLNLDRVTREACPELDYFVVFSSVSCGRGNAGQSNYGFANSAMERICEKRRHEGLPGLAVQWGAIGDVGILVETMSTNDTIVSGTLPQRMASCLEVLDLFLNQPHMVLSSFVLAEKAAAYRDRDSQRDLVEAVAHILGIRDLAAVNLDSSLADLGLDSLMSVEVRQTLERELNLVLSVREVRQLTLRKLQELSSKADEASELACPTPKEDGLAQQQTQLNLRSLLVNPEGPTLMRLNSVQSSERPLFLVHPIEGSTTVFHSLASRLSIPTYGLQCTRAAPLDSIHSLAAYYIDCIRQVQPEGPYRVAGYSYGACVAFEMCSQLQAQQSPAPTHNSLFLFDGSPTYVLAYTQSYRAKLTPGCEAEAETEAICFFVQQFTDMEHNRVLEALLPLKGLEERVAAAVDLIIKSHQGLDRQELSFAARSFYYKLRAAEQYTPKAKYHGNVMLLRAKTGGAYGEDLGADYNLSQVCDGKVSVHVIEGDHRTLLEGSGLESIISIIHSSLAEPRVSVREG
Put plainly: Fatty Acid Synthase Keto-Reductase Domain (FASN KR) Inhibition. The format is biochemical. As to conditions: mean where tested more than once; read-out: FASN K-R Domain pIC50 (converted). In a few lines:
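Full-length human FASN (300 ng) in 100 mM KH2PO4 pH 7.5 with 360 μM NADPH and 180 mM ethyl acetoacetate (stock); A340 decrease read over 20 min at room temperature.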

T1 sequence (P49327 whole entry): as the sequence (P49327 whole entry, the tested form may be a part) above

As for `Cc1ccc(C(=O)N2CCC(c3ccc(-c4cnn(CCN(C)C)c4)cc3)CC2)cc1NC(=O)c1ccc(NC(C)C)nc1` [Compound 253, N-(5-(4-(4-(1-(2-(dimethylamino)ethyl)-1H-pyrazol-4-yl)phenyl)piperidine-1-carbonyl)-2-methylphenyl)-6-(isopropylamino)nicotinamide], the pIC50 in assay [1] is 6.50. Also, the inhibition at 10 µM in assay [1] came to 104%. The IC50 in the assay with A2780 ovarian cells [2] was approximately 1860 nM; in the assay with A2780 ovarian cells [3], approximately 257 nM; in assay [4] it was 1230 nM.
For `Cc1ccc(C(=O)N2CC(c3ccc(-c4ccnn4C)cc3)C2)cc1NC(=O)c1ccc(NC(C)C)nc1` [Compound 25, 6-(isopropylamino)-N-(2-methyl-5-(3-(4-(1-methyl-1H-pyrazol-5-yl)phenyl)azetidine-1-carbonyl)phenyl)nicotinamide] the same measures were 7.55, 109%, approximately 2090 nM, 34.7 nM and 45.7 nM.
Regarding `Cc1ccc(C(=O)N2CCC(c3ccc(-n4ccnc4)cc3)C(C)(C)C2)cc1NC(=O)c1ccc(NC(C)C)nc1` (stereo not shown) [Compound #43, N-(5-(4-(4-(1H-imidazol-1-yl)phenyl)-3,3-dimethylpiperidine-1-carbonyl)-2-methylphenyl)-6-(isopropylamino)nicotinamide], the pIC50 in assay [1] was 7.35. Also, the inhibition at 10 µM in assay [1] amounted to 106%. Also, the figures for the IC50 (in the assay on A2780 ovarian cells [2]; in the assay on A2780 ovarian cells [3]; in assay [4]) were more than 10000 nM, 132 nM and 69.2 nM, respectively.
Regarding `Cc1ccc(C(=O)N2CCC(c3ccc(-n4ccnc4)cc3)CC2)cc1NC(=O)c1ccc(Cl)nc1` [Compound #11, N-(5-(4-(4-(1H-imidazol-1-yl)phenyl)piperidine-1-carbonyl)-2-methylphenyl)-6-chloronicotinamide], in assay [1], the pIC50 is 7.56. For the same compound, the inhibition at 10 µM in assay [1] was 106%. Also, the IC50 in the assay on A2780 ovarian cells [2] was more than 10000 nM; in the assay with A2780 ovarian cells [3] it was 56.2 nM; in assay [4], 49 nM.
On to `Cc1ccc(C(=O)N2CCC(c3ccc(-c4cnn(C5CC5)c4)cc3)CC2)cc1NC(=O)c1ccc(NC(C)C)nc1` [Compound 254, N-(5-(4-(4-(1-cyclopropyl-1H-pyrazol-4-yl)phenyl)piperidine-1-carbonyl)-2-methylphenyl)-6-(isopropylamino)nicotinamide], for which the pIC50 in assay [1] is 7.37. The inhibition at 10 µM in assay [1] came to 103%. In addition, the IC50 in the assay with A2780 ovarian cells [2] was approximately 10000 nM; in the assay with A2780 ovarian cells [3] it was 18.2 nM; in assay [4] it was 53.7 nM.
For `Cc1ccc(C(=O)N2CCC(c3ccc(-c4cnn(CC5CC5)c4)cc3)CC2)cc1NC(=O)c1ccc(NC(C)C)nc1` [Compound 249, N-(5-(4-(4-(1-(cyclopropylmethyl)-1H-pyrazol-4-yl)phenyl)piperidine-1-carbonyl)-2-methylphenyl)-6-(isopropylamino)nicotinamide] the same measures were 7.27, 109%, 5250 nM, 72.4 nM and 100 nM.
As to `Cc1ccc(C(=O)N2CCC(c3ccc(-c4ccccc4C)cc3)CC2)cc1NC(=O)c1ccc(NC(C)C)nc1` [Compound 232, 6-(isopropylamino)-N-(2-methyl-5-(4-(2′-methyl-[1,1′-biphenyl]-4-yl)piperidine-1-carbonyl)phenyl)nicotinamide], the pIC50 in assay [1] is 6.49. For the same compound, in assay [1], the inhibition at 10 µM amounted to 85%. Moreover, the IC50 with A2780 ovarian cells [2] was 6610 nM; in the assay on A2780 ovarian cells [3], 389 nM; in assay [4], 490 nM.
For `Cc1ccc(C(=O)N2CCC(c3ccc(-c4cnn(C)c4)cc3)CC2)cc1NC(=O)C1CN(CCC(C)C)C1` [Compound 213, 1-isopentyl-N-(2-methyl-5-(4-(4-(1-methyl-1H-pyrazol-4-yl)phenyl)piperidine-1-carbonyl)phenyl)azetidine-3-carboxamide] the same measures were 7.34, 111%, more than 10000 nM, 64.6 nM and 195 nM.
For `Cc1ccc(C(=O)N2CCC(c3ccc(-c4cnn(C)c4)cc3)CC2)cc1NC(=O)C1CN(C2CCC(C)C2)C1` (stereo not shown) [Compound 193, N-(2-methyl-5-(4-(4-(1-methyl-1H-pyrazol-4-yl)phenyl)piperidine-1-carbonyl)phenyl)-1-(3-methylcyclopentyl)azetidine-3-carboxamide] the same measures were 7.22, 109%, 7080 nM, 148 nM and 178 nM.
For `Cc1ccc(C(=O)N2CC(c3ccc(-c4cnn(C)c4)cc3)C2)cc1NC(=O)c1cnc(Cl)nc1` [Compound 154, 2-chloro-N-(2-methyl-5-(3-(4-(1-methyl-1H-pyrazol-4-yl)phenyl)azetidine-1-carbonyl)phenyl)pyrimidine-5-carboxamide] the same measures were 7.57, 108%, 4070 nM, 1350 nM and 105 nM.
For `Cc1ccc(C(=O)N2CCC(c3ccc(-c4cnn(C)c4)cc3)CC2)cc1NC(=O)c1ccccc1F` [Compound 117, 2-fluoro-N-(2-methyl-5-(4-(4-(1-methyl-1H-pyrazol-4-yl)phenyl)piperidine-1-carbonyl)phenyl)benzamide], the negative logarithm of the IC50 (pIC50) in assay [1] was 7.48. Also, the inhibition at 10 µM in assay [1] is 99%. For the same compound, the IC50 was more than 10000 nM in the assay on A2780 ovarian cells [2], 138 nM with A2780 ovarian cells [3] and 83.2 nM in assay [4].
For `Cc1ccc(C(=O)N2CCC(c3ccc(-c4cnn(C)c4)cc3)CC2)cc1NC(=O)c1c(Cl)cccc1Cl` [Compound 121, 2,6-dichloro-N-(2-methyl-5-(4-(4-(1-methyl-1H-pyrazol-4-yl)phenyl)piperidine-1-carbonyl)phenyl)benzamide] the same measures were 6.42, 87%, 8510 nM, 1000 nM and 794 nM.
For `Cc1ccc(C(=O)N2CCC(c3ccc(-c4cnn(C)c4)cn3)CC2)cc1NC(=O)c1ccc(Cl)nc1` [Compound 263, 6-chloro-N-(2-methyl-5-(4-(5-(1-methyl-1H-pyrazol-4-yl)pyridin-2-yl)piperidine-1-carbonyl)phenyl)nicotinamide] the same measures were 7.04, 111%, more than 10000 nM, 170 nM and 479 nM.
Take `CCCCN1CCC(C(=O)Nc2cc(C(=O)N3CCC(c4ccc(-c5cnn(C)c5)cc4)CC3)ccc2C)C1` (stereo not shown) [Compound 212, 1-butyl-N-(2-methyl-5-(4-(4-(1-methyl-1H-pyrazol-4-yl)phenyl)piperidine-1-carbonyl)phenyl)pyrrolidine-3-carboxamide]: the negative logarithm of the IC50 (pIC50) in assay [1] was 6.92. For the same compound, the inhibition at 10 µM in assay [1] was found to be 108%. Further, the IC50 was more than 10000 nM with A2780 ovarian cells [2], 120 nM in the assay with A2780 ovarian cells [3] and 324 nM in assay [4].
With `COc1ccccc1C(=O)Nc1cc(C(=O)N2CCC(c3ccc(-c4cnn(C)c4)cc3)CC2)ccc1C` [Compound 105, 2-methoxy-N-(2-methyl-5-(4-(4-(1-methyl-1H-pyrazol-4-yl)phenyl)piperidine-1-carbonyl)phenyl)benzamide], the pIC50 in assay [1] is 6.51. Further, the inhibition at 10 µM in assay [1] came out at 86%. Besides, the IC50 in the assay with A2780 ovarian cells [2] was 3020 nM; in the assay with A2780 ovarian cells [3], 955 nM; in assay [4], 617 nM.
With `Cc1ccc(C(=O)N2CCC(c3ccc(-c4cnn(C)c4)cc3)CC2)cc1NC(=O)c1ccc(Cl)cc1Cl` [Compound 122, 2,4-dichloro-N-(2-methyl-5-(4-(4-(1-methyl-1H-pyrazol-4-yl)phenyl)piperidine-1-carbonyl)phenyl)benzamide], the pIC50 in assay [1] was 7.73. For the same compound, in assay [1], the inhibition at 10 µM amounted to 101%. In addition, the IC50 in the assay on A2780 ovarian cells [2] was more than 10000 nM; in the assay with A2780 ovarian cells [3], 117 nM; in assay [4], 75.9 nM.
On to `CC(C)Nc1ccc(C(=O)Nc2cc(C(=O)N3CC(c4ccc(-c5ccncc5)cc4)C3)ccc2Cl)cn1` [Compound #74, N-(2-chloro-5-(3-(4-(pyridin-4-yl)phenyl)azetidine-1-carbonyl)phenyl)-6-(isopropylamino)nicotinamide], for which the negative logarithm of the IC50 (pIC50) in assay [1] was 7.76. Also, the inhibition at 10 µM in assay [1] is 107%. The IC50 was 2190 nM with A2780 ovarian cells [2], 61.7 nM in the assay with A2780 ovarian cells [3] and 45.7 nM in assay [4].

A word on the pIC50: it is −log10 of the IC50, conventionally taken in molar units. Higher therefore signals a low IC50.

The values are drawn from US9562035B2, “Benzamide derivative useful as FASN inhibitors for the treatment of cancer” (Janssen Pharmaceutica NV, priority 2013, dated 2017).
